Experiment [1] concerns PS2.M (DNA, G4) GTGGGTAGGGCGGGTTGG
Kind of experiment: ligand fluorescence titration. The following applies: 100 mM KCl; 10 mM Tris-HCl, pH 7.6; no CDHP.

Experiment [2] concerns Malachite green (MG) aptamer (RNA, aptamer) GGAUCCCGACUGGCGAGAGCCAGGUAACGAAUGGAUCC
Kind of experiment: fluorescence spectrum. The following applies: 100 mM KCl, 5 mM MgCl2; 10 mM HEPES, pH 7.4; 1 μM CV; also in 2 M CDHP.

The test system is the same in experiment [3]. Kind of experiment: fluorescence light-up titration of MG. The following applies: 100 mM KCl, 5 mM MgCl2; 10 mM Na-HEPES, pH 7.4; 100 nM aptamer; no CDHP.
The test system of experiment [4] is Scrambled MG aptamer (RNA, other) ACCGUUGCCGGACGAGACUGAUACGCGGAAGUCGCAAG
Kind of experiment: fluorescence spectrum. The following applies: 100 nM scrambled RNA.

Experiment [5] relates to Cortisol aptamer (DNA, aptamer) CTCTTGGGACGACGCCCGCATGTTCCATGGATAGTCTTGACTAGTCGTCCC
Kind of experiment: aptasensor strand-displacement fluorescence (FAM/BHQ1). The following applies: aqueous buffer and 2 M CDHP; 3'-FAM signaling strand GTCGTCCCAAGAG hybridized; 1-10 ng/ml cortisol.

Experiment [6] deals with ATP aptamer (DNA, aptamer) AATTCTGGGGGAGCCTTTTGTGGGTAGGGCGGGTTGGTTTTGCCCCGGAGGAGGAATT
Kind of experiment: structure-switching FAM/BHQ1 fluorescence quenching. The following applies: 300 mM NaCl, 5 mM MgCl2, 20 mM Tris-HCl, pH 7.4; for binding: 2 M CDHP, AD-13 hybridized, 1 mM nucleotide tested.

This is an account of results in article PMC10783497 (2023).

SMILES strings stand for the structures.

Take `CCc1c(C)c2cc3nc(cc4nc(cc5c(CC)c(C)c(cc1[nH]2)n5C)C(C)=C4CCC(=O)O)C(CCC(=O)O)=C3C`: in experiment [1], the Kd (commonly the constant that tells how readily two partners part at equilibrium) was 520.6 nM. Turning to `CN(C)c1ccc(C(=C2C=CC(=[N+](C)C)C=C2)c2ccc(N(C)C)cc2)cc1`, in experiment [2], the binding entry is reported as “no”.

Compound `CN(C)c1ccc(C(=C2C=CC(=[N+](C)C)C=C2)c2ccccc2)cc1` came in with a Kd in experiment [3] of 257.3 nM. Also, the binding entry in experiment [4] is “no”. On to `C[C@]12CCC(=O)C=C1CC[C@@H]1[C@@H]2[C@@H](O)C[C@@]2(C)[C@H]1CC[C@]2(O)C(=O)CO`, for which the binding result in experiment [5] was “yes”.

In experiment [1], `Cc1ccc2c(c1)sc(-c1ccc(N(C)C)cc1)[n+]2C` returned a Kd of 1444.7 nM. In the case of `Nc1ccn([C@@H]2O[C@H](COP(=O)(O)OP(=O)(O)OP(=O)(O)O)[C@@H](O)[C@H]2O)c(=O)n1`, the binding result in experiment [6] was “no”. Take `Nc1nc2c(ncn2[C@@H]2O[C@H](COP(=O)(O)OP(=O)(O)OP(=O)(O)O)[C@@H](O)[C@H]2O)c(=O)[nH]1`: in experiment [6], the binding result is on record as “no”. For the compound `Nc1ncnc2c1ncn2[C@@H]1O[C@H](COP(=O)(O)OP(=O)(O)OP(=O)(O)O)[C@@H](O)[C@H]1O`, the concentration giving a half-maximal response (EC50) – broadly, the midpoint of the concentration-response curve – in experiment [6] (antisense DNA AD-13 displaced, no CDHP) is 384000 nM. For the compound `O=c1ccn([C@@H]2O[C@H](COP(=O)(O)OP(=O)(O)OP(=O)(O)O)[C@@H](O)[C@H]2O)c(=O)[nH]1`, in experiment [6], the binding entry is “no”.
